Laboratory results taken from the Deep4Chem optical property database.
Values belong to the molecule of their own block, whether it stands above or below them.

Assay: solvent given as SMILES
[1] = in O=P(c1ccccc1)(c1ccccc1)c1ccccc1Oc1ccccc1P(=O)(c1ccccc1)c1ccccc1

Compound: Cc1cc(C(F)(F)F)nc2c1ccc1nc(-c3ccc(F)c(F)c3)cn12
fluorescence lifetime (in CC#N): 8.58 ns
fluorescence lifetime (in CCCCOC(C)=O): 7.28 ns
fluorescence lifetime (in CCOC(C)=O): 7.26 ns
fluorescence lifetime (in CO): 8.3 ns
fluorescence lifetime (in c1ccccc1): 6.69 ns

Compound: O=C1c2ccccc2C(=O)C1C1C(=O)c2c3ccccc3cc3cc4ccccc4c1c23 (stereo unspecified)
fluorescence lifetime (in C1CCOC1): 13.5 ns
fluorescence lifetime (in CC#N): 8.4 ns
fluorescence lifetime (in CCCCCC): 12.9 ns
fluorescence lifetime (in Cc1ccccc1): 14.1 ns
fluorescence lifetime (in ClCCl): 11 ns

Compound: CCCCCCCCN1C(=O)c2ccc3c4c(-c5ccc6c(c5)c5ccccc5n6-c5ccccc5)cc5c6c(cc(-c7ccc8c(c7)c7ccccc7n8-c7ccccc7)c(c7ccc(c2c37)C1=O)c64)C(=O)N(CCCCCCCC)C5=O
fluorescence lifetime (in ClC(Cl)Cl): 4.1 ns

Compound: COc1cc(OC)c2cc(C#N)c(=N)oc2c1
fluorescence lifetime (in ClCCl): 2.4 ns

Compound: COc1ccc(N(c2ccc(OC)cc2)c2cc3ccc4cc(B(c5c(C)cc(C)cc5C)c5c(C)cc(C)cc5C)cc5ccc(c2)c3c45)cc1
fluorescence lifetime (in C1CCOC1): 6.1 ns
fluorescence lifetime (in CC(C)=O): 3.2 ns
fluorescence lifetime (in CCCCCC): 7.7 ns
fluorescence lifetime (in Cc1ccccc1): 8.7 ns
fluorescence lifetime (in ClC(Cl)Cl): 6.5 ns
fluorescence lifetime (in ClCCl): 6.5 ns

Compound: Cc1ccc2nc3c(=O)n(C)c(=O)nc-3n(C)c2c1
fluorescence lifetime (in CC#N): 4.9 ns

Compound: C[Si](C)(C)c1ccc(-c2ccc(-c3ccc(-c4ccc(-c5ccc([Si](C)(C)C)s5)s4)c4nsnc34)s2)s1
fluorescence lifetime (in C1CCOC1): 5.8 ns

Compound: F[B-]1(F)n2c(/C=C/c3ccc(C(=C(c4ccccc4)c4ccccc4)c4ccccc4)cc3)ccc2C(c2ccccc2)=C2C=CC(/C=C/c3ccc(C(=C(c4ccccc4)c4ccccc4)c4ccccc4)cc3)=[N+]21
fluorescence lifetime (in C1CCOC1): 3.98 ns

Compound: CCC12C(=C3C(=C4c5ccc(-c6ccc(C(C)=O)s6)cc5S(=O)(=O)C41CC)C(F)(F)C(F)(F)C3(F)F)c1ccc(-c3ccc(C(C)=O)s3)cc1S2(=O)=O (stereo unspecified)
fluorescence lifetime (in C1COCCO1): 1.9 ns

Compound: Cc1ccc(O)c(-c2nc(C)c3n2CCCC3)c1
fluorescence lifetime (in ClCCl): 2.3 ns

Compound: COc1ccc2c(c1)c1cc(OC)ccc1n2-c1ccc2c(c1)-c1cc(-n3c4ccc(OC)cc4c4cc(OC)ccc43)ccc1P2(=O)c1ccccc1
fluorescence lifetime (in c1ccc2c(c1)c1ccccc1n2-c1ccc(-c2ccc(-n3c4ccccc4c4ccccc43)cc2)cc1): 16.7 ns

Compound: O=S1(=O)c2ccc(-c3c4ccccc4cc4ccccc34)cc2-c2cc(-c3c4ccccc4cc4ccccc34)ccc21
fluorescence lifetime (in C1CCCCC1): 3.2 ns
fluorescence lifetime (in CC#N): 4.3 ns
fluorescence lifetime (in ClCCl): 3.7 ns

Compound: CCC1(CC)c2ccccc2-c2c1c1c(c3c2C(CC)(CC)c2cc(N(c4ccccc4)c4ccccc4)ccc2-3)C(CC)(CC)c2ccccc2-1
fluorescence lifetime (in C1CCOC1): 1.6 ns

Compound: N#Cc1c(-n2c3ccccc3c3ccccc32)cc(N2c3ccccc3C(c3ccccc3)(c3ccccc3)c3ccccc32)cc1-n1c2ccccc2c2ccccc21
fluorescence lifetime (in Cc1ccccc1): 18.4 ns

Compound: c1coc(-c2nc3ccccc3[nH]2)c1
fluorescence lifetime (in C1CCOC1): 1.47 ns
fluorescence lifetime (in CCCCCC): 1.48 ns
fluorescence lifetime (in CCO): 1.55 ns
fluorescence lifetime (in CCOCC): 1.53 ns
fluorescence lifetime (in CO): 1.58 ns
fluorescence lifetime (in ClC(Cl)Cl): 0.6 ns
fluorescence lifetime (in ClCCl): 1.26 ns
fluorescence lifetime (in O): 1.67 ns

Compound: CC1(C)c2ccccc2N(c2ccc(-c3nnc(-c4ccccc4)o3)cc2)c2ccccc21
fluorescence lifetime (in Cc1ccccc1): 7 ns
fluorescence lifetime (in c1ccc(-n2c(-c3c(-n4c5ccccc5c5ccccc54)cccc3-n3c4ccccc4c4ccccc43)nc3ccccc32)cc1): 7.8 ns

Compound: Cc1nnc(-c2cc(-c3nnc(C)o3)c(-n3c4ccccc4c4ccccc43)cc2-n2c3ccccc3c3ccccc32)o1
fluorescence lifetime (in Cc1ccccc1): 6.5 ns
fluorescence lifetime [1]: 8.5 ns

Compound: COc1ccc(C#Cc2ccc(C#Cc3ccc(P(=O)(c4ccc(C#Cc5ccc(C#Cc6ccc(OC)cc6)cc5)cc4)c4ccc(C#Cc5ccc(C#Cc6ccc(OC)cc6)cc5)cc4)cc3)cc2)cc1
fluorescence lifetime (in C1CCCCC1): 0.58 ns
fluorescence lifetime (in C1COCCO1): 0.69 ns
fluorescence lifetime (in CC#N): 1.14 ns
fluorescence lifetime (in CCO): 1.02 ns
fluorescence lifetime (in CS(C)=O): 1.24 ns
fluorescence lifetime (in ClC(Cl)Cl): 0.74 ns
fluorescence lifetime (in ClCCl): 0.85 ns

Compound: Cn1ccc(=O)n(C)c1=O
fluorescence lifetime (in CC#N): 0.0001 ns

Compound: CC\C=C/C=C/C=C/C=C\CCCCCCCC(=O)O
fluorescence lifetime (in C1COCCO1): 3.2 ns
fluorescence lifetime (in CCCCCC): 4.5 ns
fluorescence lifetime (in CCCCCCCCCC): 5.2 ns
fluorescence lifetime (in CCCCO): 2.5 ns
fluorescence lifetime (in CCOCC): 5.1 ns
fluorescence lifetime (in CO): 1.3 ns
fluorescence lifetime (in ClC(Cl)Cl): 1.5 ns

Compound: ClP1(Cl)=NP(Cl)(Cl)=NP(Cl)(Oc2ccc3ccc4cccc5ccc2c3c45)=N1 (stereo unspecified)
fluorescence lifetime (in ClCCl): 3.29 ns

Compound: C[Si](C)(C)C#CC1=CC2=c3cc(C#C[Si](C)(C)C)c4nc(C(F)(F)C(F)(F)C(F)(F)F)nc5c(C#C[Si](C)(C)C)cc(c3c54)C3=CC(C#C[Si](C)(C)C)=C4N=C(C(F)(F)C(F)(F)C(F)(F)F)N=C1C4C32 (stereo unspecified)
fluorescence lifetime (in C1CCOC1): 2.1 ns

Compound: FC(F)(F)C(F)(F)C(F)(F)C(F)(F)C(F)(F)C(F)(F)CCOc1nnc(Cl)nn1
fluorescence lifetime (in ClCCl): 153 ns
fluorescence lifetime (in OCC(F)(F)F): 152 ns

Compound: Cc1ccc2nc3[nH]c(=O)[nH]c(=O)c3nc2c1
fluorescence lifetime (in CC#N): 0.6 ns
fluorescence lifetime (in ClCCCl): 0.49 ns

Compound: COc1ccc2cc(-c3ccc([N+](=O)[O-])cc3)ccc2c1
fluorescence lifetime (in C1CCOC1): 0.33 ns
fluorescence lifetime (in CC#N): 0.22 ns
fluorescence lifetime (in ClC(Cl)Cl): 1.87 ns
fluorescence lifetime (in ClCCl): 2.04 ns

Compound: CC(=O)OC[C@H]1O[C@@H](OCC#Cc2ccc(C3=C4C(C)=CC(/C=C/c5ccc([N+](C)(C)C)cc5)=[N+]4[B-](F)(F)n4c(/C=C/c5ccc([N+](C)(C)C)cc5)cc(C)c43)cc2)[C@H](OC(C)=O)C(OC(C)=O)[C@@H]1OC(C)=O (stereo partly specified)
fluorescence lifetime (in CC#N): 5.4 ns

Compound: Fc1c(-n2c3ccccc3c3ccccc32)c(F)c(-n2c3ccccc3c3ccccc32)c(-c2nnc(-c3ccccc3)o2)c1-n1c2ccccc2c2ccccc21
fluorescence lifetime (in Cc1ccccc1): 3.9 ns

Compound: c1ccc(-c2nc(-c3ccccc3)c(-c3ccccc3)o2)cc1
fluorescence lifetime (in Cc1ccccc1): 1.27 ns

Compound: CC(C)(C)c1ccc2c(c1)c1cc(C(C)(C)C)ccc1n2-c1ccc(C#Cc2ccc(C#Cc3ccc(C=C(C#N)C#N)cc3)cc2)cc1
fluorescence lifetime (in ClCCl): 3.7 ns

Compound: CC1(C)C(=O)C=Cc2ccc(N3CCC3)cc21
fluorescence lifetime (in O): 3.83 ns

Compound: Cc1cc(-c2ccc(-n3c4ccccc4c4ccccc43)cc2)nc(-c2ccc(-n3c4ccccc4c4ccccc43)cc2)n1
fluorescence lifetime (in C1CCOC1): 4.26 ns
fluorescence lifetime (in CN(C)C=O): 7.57 ns
fluorescence lifetime (in Cc1ccccc1): 2.44 ns
fluorescence lifetime (in ClC(Cl)Cl): 4.11 ns

Compound: Fc1cc(-c2nc(-c3ccccc3)nc(-c3ccccc3)n2)ccc1-n1c2ccccc2c2c3c(ccc21)C1(c2ccccc2-c2ccccc21)c1ccccc1-3
fluorescence lifetime [1]: 8.3 ns

Compound: c1ccc(-c2nc(-c3ccccc3)nc(-c3cc(-n4c5ccccc5c5ncccc54)cc(-n4c5ccccc5c5ncccc54)c3)n2)cc1
fluorescence lifetime (in O=P(c1ccccc1)(c1ccccc1)c1ccc2oc3ccc(P(=O)(c4ccccc4)c4ccccc4)cc3c2c1): 6.6 ns

Further lines, results first:

fluorescence lifetime (in ClCCl): 4.32 ns
Compound: COc1cc(OC)cc(C2=[O+][B-](F)(F)OC(c3ccc4cc(OC)ccc4c3)=C2)c1

fluorescence lifetime (in CCCCCC): 21.1 ns
Compound: CCc1c(C(=O)OC)c(C(=O)OC)c2ccc(-c3ccccc3)nn12

fluorescence lifetime (in ClCCl): 1.14 ns
Compound: CCCCC(CC)COc1ccc2nc(-c3ccc(-c4ccccc4)s3)sc2c1 (stereo unspecified)

fluorescence lifetime (in C1COCCO1): 10.3 ns
fluorescence lifetime (in CCOC(C)=O): 6.6 ns
Compound: Clc1nc(Nc2ccccc2)nc(Nc2ccc3cc4ccccc4cc3c2)n1

fluorescence lifetime (in ClCCl): 16.8 ns
Compound: c1ccc2c(c1)Nc1ccccc1B2c1c2ccccc2cc2ccccc12

fluorescence lifetime (in C1CCCCC1): 0.49 ns
Compound: COC(=O)c1noc(-c2ccccc2)c1Br

fluorescence lifetime (in C1CCCCC1): 3.99 ns
fluorescence lifetime (in CCOC(C)=O): 4.1 ns
fluorescence lifetime (in CO): 4.02 ns
Compound: F[B-]1(F)n2c(cc3c4ccccc4oc32)C(c2ccccc2)=C2C=c3c(oc4ccccc34)=[N+]21

fluorescence lifetime (in C1CCOC1): 2.57 ns
Compound: CCn1c2ccccc2c2cc(-c3cc(-c4ccc5c(c4)c4ccccc4n5CC)nc(C#N)n3)ccc21

fluorescence lifetime (in CC#N): 216 ns
Compound: C1=CC2CC1C1C2[C@@]2(c3ccccc3)N=NC1(c1ccccc1)[C@@H]1C[C@H]12 (stereo partly specified)

fluorescence lifetime (in ClCCl): 2.79 ns
Compound: F[B-]1(F)OC(C#Cc2ccccc2)=C2CCc3ccccc3C2=[O+]1

fluorescence lifetime (in C1CCCCC1): 3.9 ns
fluorescence lifetime (in CC#N): 4.3 ns
fluorescence lifetime (in ClCCl): 4.7 ns
Compound: c1ccc2c(-c3ccc4sc5ccc(-c6c7ccccc7cc7ccccc67)cc5c4c3)c3ccccc3cc2c1

fluorescence lifetime (in ClC(Cl)Cl): 7.55 ns
Compound: CC(C)(C)NC(=O)c1ccc2ccc3cccc4ccc1c2c34

fluorescence lifetime (in CC#N): 3.01 ns
Compound: O=[N+]([O-])c1ccc(/C=C/c2nc3c4ccccc4c4ccccc4c3o2)cc1

fluorescence lifetime (in CC#N): 1.06 ns
Compound: Cc1ccc(-c2ccc(/C=C/c3ccccc3)cn2)nc1

fluorescence lifetime (in C1CCCCC1): 23 ns
fluorescence lifetime (in C1CCOC1): 23 ns
fluorescence lifetime (in CC#N): 10.1 ns
Compound: Cn1nc(-c2ccccc2)c2nc3cc(F)ccc3nc21

fluorescence lifetime (in C1CCOC1): 2.24 ns
Compound: Cc1csc2[n+]1[B-](F)(F)OC(c1ccc(N(C)C)cc1)=N2

fluorescence lifetime (in CC1CCCCC1): 3.3 ns
fluorescence lifetime (in CC#N): 3.6 ns
Compound: C(=C\c1c2ccccc2cc2ccccc12)/c1ccc2ccccc2c1

fluorescence lifetime (in ClCCl): 6.5 ns
Compound: Cc1csc2[n+]1[B-](F)(F)n1c(c3cccc4cccc1c43)=N2

fluorescence lifetime (in ClCCl): 6.1 ns
Compound: F[B-]1(F)n2c(c3cccc4cccc2c43)=Nc2ccc3ccccc3[n+]21

fluorescence lifetime (in C1COCCO1): 1.09 ns
fluorescence lifetime (in CC#N): 2.03 ns
fluorescence lifetime (in CCCCCC): 0.37 ns
fluorescence lifetime (in CCCCCCC): 0.38 ns
fluorescence lifetime (in CCCO): 0.95 ns
fluorescence lifetime (in CCOC(C)=O): 1 ns
fluorescence lifetime (in CS(C)=O): 2.51 ns
fluorescence lifetime (in ClC(Cl)Cl): 0.89 ns
fluorescence lifetime (in ClCCl): 1.25 ns
Compound: COc1ccc(C#Cc2ccc(C#N)cc2)cc1OC

fluorescence lifetime (in ClCCl): 9.5 ns
Compound: O=C1c2ccccc2-c2nc3c(F)c(F)c(F)c(F)c3n21

fluorescence lifetime (in ClCCl): 3.16 ns
Compound: C1=CC2C=c3c(cc4cccc5cc6ccccc6c3c45)C3=c4ccccc4=CC(=C1)C32 (stereo unspecified)

fluorescence lifetime (in CC#N): 3.95 ns
fluorescence lifetime (in CS(C)=O): 3.06 ns
fluorescence lifetime (in ClC(Cl)Cl): 4.24 ns
Compound: C#CCn1c2ccccc2c2cc(/C=C/c3c(Cl)c(C)c4n3[B-](F)(F)[N+]3=C(C)C(Cl)=C(C)C3=C4c3ccc(I)cc3)ccc21

fluorescence lifetime (in C1CCCCC1): 0.8 ns
fluorescence lifetime (in CC#N): 2.3 ns
fluorescence lifetime (in c1ccccc1): 1.4 ns
Compound: Nc1cccc2c1C(=O)c1ccccc1-2

fluorescence lifetime (in ClCCl): 0.94 ns
Compound: F[B-]1(F)OC(C#Cc2ccccc2)=CC(c2ccccc2)=[O+]1

fluorescence lifetime (in C1CCCCC1): 5.8 ns
fluorescence lifetime (in CC#N): 0.9 ns
Compound: COc1cc(OC)c2c(c1)C(=O)c1ccccc1-2

fluorescence lifetime (in ClCCl): 2.53 ns
Compound: COc1ccc2cc(/C=C/C3=CC(c4ccccc4)=[O+][B-](F)(F)O3)ccc2c1

fluorescence lifetime (in ClC(Cl)Cl): 0.436 ns
Compound: F[B-]1(F)OC(c2ccc(Br)cc2)=Cc2c3ccccc3c3ccccc3[n+]21
